Laboratory results as given in patent US6825170B2, “6-O-acyl ketolide antibacterials” (Ortho-McNeil Pharmaceutical, Inc., priority 2001, dated 2004).
Converted amounts (≈) assume the structure as drawn.

Tests used:
Assay in all cases: MIC, microdilution broth method (NCCLS)
Type in all cases: cell-based
Conditions in all cases: 35° C., 16-20 hours
[1] = tested on: E. coli OC2605
Method in brief: (§1)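 Two-fold serial drug dilutions in cation-adjusted Mueller-Hinton broth were inoculated with actively growing cultures to about 5×10^4 CFU/well. Trays were incubated 16-20 hours at 35° C. MIC was read by comparing growth against drug-free growth-control wells.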

[2] = tested on: E. faecalis ATCC29212
Method in brief: as §1

[3] = tested on: H. influenzae ATCC49247
Method in brief: as §1

[4] = tested on: S. aureus ATCC29213
Method in brief: as §1

[5] = tested on: S. pneumoniae ATCC49619
Method in brief: as §1

Row | Compound | MIC (A: E. coli OC2605) [1] | MIC (C: E. faecalis ATCC29212) [2] | MIC (E: H. influenzae ATCC49247) [3] | MIC (B: S. aureus ATCC29213) [4] | MIC (D: S. pneumoniae ATCC49619) [5]
1 | CC[C@H]1OC(=O)[C@H](C)C(=O)[C@H](C)[C@@H](O[C@@H]2O[C@H](C)C[C@H](N(C)C)[C@H]2O)[C@](C)(OC(=O)NNc2ccccc2)C[C@@H](C)C(=O)[C@H](C)[C@H]2NC(=O)O[C@@]21C [Compound 624] | >16 µg/mL | 0.5 µg/mL (≈ 0.682 µM) | 4 µg/mL (≈ 5.46 µM) | 4 µg/mL (≈ 5.46 µM) | 0.12 µg/mL (≈ 0.164 µM)
2 | CC[C@H]1OC(=O)[C@H](C)C(=O)[C@H](C)[C@@H](O[C@@H]2O[C@H](C)C[C@H](N(C)C)[C@H]2O)[C@](C)(OC(=O)NN(C)C/C=C/c2ccc(-c3ncccn3)cc2)C[C@@H](C)C(=O)[C@H](C)[C@H]2NC(=O)O[C@@]21C [Compound 744] | >16 µg/mL | 0.25 µg/mL (≈ 0.289 µM) | 8 µg/mL (≈ 9.25 µM) | 0.25 µg/mL (≈ 0.289 µM) | 0.03 µg/mL (≈ 0.0347 µM)
3 | CCC1OC(=O)C(C)C(=O)C(C)C(OC2OC(C)CC(N(C)C)C2O)C(C)(OC(=O)n2cccc2)CC(C)C(=O)C(C)C2NC(=O)OC12C (centres unmarked) [Compound 2] | >16 µg/mL | 8 µg/mL (≈ 11.6 µM) | >16 µg/mL | >16 µg/mL | 0.5 µg/mL (≈ 0.723 µM)
4 | CCC1OC(=O)C(C)C(=O)C(C)C(OC2OC(C)CC(N(C)C)C2O)C(C)(OC(=O)OCC#Cc2ccc(-c3ncccn3)cc2)CC(C)C(=O)C(C)C2NC(=O)OC12C (centres unmarked) [Compound 80] | 16 µg/mL (≈ 19.2 µM) | 0.12 µg/mL (≈ 0.144 µM) | 2 µg/mL (≈ 2.4 µM) | 0.25 µg/mL (≈ 0.299 µM) | 0.03 µg/mL (≈ 0.0359 µM)
5 | CC[C@H]1OC(=O)[C@H](C)C(=O)[C@H](C)[C@@H](O[C@@H]2O[C@H](C)C[C@H](N(C)C)[C@H]2O)[C@](C)(OC(=O)NNC/C=C/c2ccc(-c3ncccn3)cc2)C[C@@H](C)C(=O)[C@H](C)[C@H]2NC(=O)O[C@@]21C [Compound 805] | 16 µg/mL (≈ 18.8 µM) | 0.25 µg/mL (≈ 0.294 µM) | 2 µg/mL (≈ 2.35 µM) | 0.25 µg/mL (≈ 0.294 µM) | 0.06 µg/mL (≈ 0.0705 µM)
6 | CCC1OC(=O)C(C)C(=O)C(C)C(OC2OC(C)CC(N(C)C)C2O)C(C)(OC(=O)OCc2ccc(-c3ncccn3)cc2)CC(C)C(=O)C(C)C2NC(=O)OC12C (centres unmarked) [Compound 77] | 8 µg/mL (≈ 9.87 µM) | 0.06 µg/mL (≈ 0.074 µM) | 2 µg/mL (≈ 2.47 µM) | 0.12 µg/mL (≈ 0.148 µM) | 0.03 µg/mL (≈ 0.037 µM)
7 | CCC1OC(=O)C(C)C(=O)C(C)C(OC2OC(C)CC(N(C)C)C2O)C(C)(OC(=O)n2ccc(C#N)c2)CC(C)C(=O)C(C)C2NC(=O)OC12C (centres unmarked) [Compound 4] | >16 µg/mL | 4 µg/mL (≈ 5.58 µM) | >16 µg/mL | >16 µg/mL | 1 µg/mL (≈ 1.4 µM)
8 | CC[C@H]1OC(=O)[C@H](C)C(=O)[C@H](C)[C@@H](O[C@@H]2O[C@H](C)C[C@H](N(C)C)[C@H]2O)[C@](C)(OC(=O)NN(C/C=C/c2ccc(-c3ncccn3)cc2)C/C=C/c2ccc(-c3ncccn3)cc2)C[C@@H](C)C(=O)[C@H](C)[C@H]2NC(=O)O[C@@]21C [Compound 806] | >16 µg/mL | 1 µg/mL (≈ 0.957 µM) | 16 µg/mL (≈ 15.3 µM) | 2 µg/mL (≈ 1.91 µM) | 0.12 µg/mL (≈ 0.115 µM)
9 | CC[C@H]1OC(=O)[C@H](C)C(=O)[C@H](C)[C@@H](O[C@@H]2O[C@H](C)C[C@H](N(C)C)[C@H]2O)[C@](C)(OC(=O)NNCCc2ccc(-c3ncccn3)cc2)C[C@@H](C)C(=O)[C@H](C)[C@H]2NC(=O)O[C@@]21C [Compound 626] | >16 µg/mL | 0.12 µg/mL (≈ 0.143 µM) | 4 µg/mL (≈ 4.77 µM) | 0.25 µg/mL (≈ 0.298 µM) | 0.03 µg/mL (≈ 0.0358 µM)
10 | CCC1OC(=O)C(C)C(=O)C(C)C(OC2OC(C)CC(N(C)C)C2O)C(C)(OC(=O)NOCc2ccccc2)CC(C)C(=O)C(C)C2NC(=O)OC12C (centres unmarked) [Compound 570] | >16 µg/mL | 0.25 µg/mL (≈ 0.334 µM) | 4 µg/mL (≈ 5.35 µM) | 1 µg/mL (≈ 1.34 µM) | 0.03 µg/mL (≈ 0.0401 µM)
